Read-outs that look alike come from different tables or passages of the source.
Experiments:
human OX2R = biological target: T1, human OX2R (Homo sapiens, UniProt O43614); assay: Agonist activity against OX2R: intracellular calcium (Fura-2AM, FDSS7000) in CHOOX2R cells; type: cell-based; details: relative to orexin-A as full agonist (100%)
T1 construct: expressed in transfected cells; host or cells: CHO (Chinese hamster ovary) cells, line CHOOX2R, co-expressing NFAT-luciferase
T1 sequence (O43614 1-444): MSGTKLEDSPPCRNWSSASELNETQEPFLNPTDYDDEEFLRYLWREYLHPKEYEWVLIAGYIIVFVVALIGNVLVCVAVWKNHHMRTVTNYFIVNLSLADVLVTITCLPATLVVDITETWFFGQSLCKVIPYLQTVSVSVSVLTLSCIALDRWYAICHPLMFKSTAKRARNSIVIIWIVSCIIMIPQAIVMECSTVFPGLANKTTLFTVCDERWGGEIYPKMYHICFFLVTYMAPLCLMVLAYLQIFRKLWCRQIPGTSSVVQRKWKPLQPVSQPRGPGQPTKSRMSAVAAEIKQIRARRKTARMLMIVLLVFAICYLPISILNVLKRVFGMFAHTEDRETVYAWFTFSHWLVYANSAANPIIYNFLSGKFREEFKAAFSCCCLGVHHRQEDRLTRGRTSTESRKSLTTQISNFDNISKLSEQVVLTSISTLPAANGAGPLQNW
Protocol: (§1) Evaluation of Agonist Activity Against OX1R and OX2R
(§2) NAFT-luciferase gene and human OX1R gene were constitutively expressed in CHO cell, which is a cell line derived from Chinese hamster ovary to establish a cell line (CHOOX1R) and NAFT-luciferase gene and human OX2R gene were constitutively expressed in CHO cell to establish a cell line (CHOOX2R). The respective cells were seeded in a 96-well Multiplate at 10,000 cells/well and cultured in a 5% FBS (Thermo Scientific)-added DMEM medium (Sigma-Aldrich) for 48 hr. The medium was removed, an assay buffer (20 mM HEPES (Sigma-Aldrich), Hanks' balanced salt solution (Gibco), 0.1% BSA (Sigma-Aldrich), 2.5 mM probenecid acid (Wako Pure Chemical Industries, Ltd.)) (100 μL) containing 5 μM Fura-2AM (Cayman Chemical) was added, and the cells were incubated for 60 min. The buffer containing Fura-2AM was removed, and an assay buffer (75 μL) was added. An assay buffer (25 μL) containing a test compound was added thereto to start the reaction. Changes in the intracellular calcium ion concentration due to the reaction were measured by measuring the fluorescence intensity ratio by dual wavelength excitation at 340 and 380 nm, by using FDSS7000 (Hamamatsu Photonics K.K.). The test compound was dissolved in DMSO to 10 mM, and diluted with the assay buffer to a final concentration of 10^−7M to 10^−5M (final concentration of DMSO 1%).
(§3) (As used herein, Response in Table 21 to Table 27 is a value obtained by dividing the agonist activity value, when the test compound is evaluated with orexin-A as a full-agonist (maximum value of agonist activity: 100%), at 10 μM, 1.0 μM, 0.1 μM by the agonist activity value of orexin-A.)

human OX1R = biological target: T2, human OX1R (Homo sapiens, UniProt O43613); assay: Agonist activity against OX1R: intracellular calcium (Fura-2AM, FDSS7000) in CHOOX1R cells; type: cell-based; details: relative to orexin-A as full agonist (100%); for Emax at 0.1 µM / Emax at 1 µM / Emax at 10 µM: read-out: Response (%) OX1R
T2 construct: expressed in transfected cells; host or cells: CHO (Chinese hamster ovary) cells, line CHOOX1R, co-expressing NFAT-luciferase
T2 sequence (O43613 1-425): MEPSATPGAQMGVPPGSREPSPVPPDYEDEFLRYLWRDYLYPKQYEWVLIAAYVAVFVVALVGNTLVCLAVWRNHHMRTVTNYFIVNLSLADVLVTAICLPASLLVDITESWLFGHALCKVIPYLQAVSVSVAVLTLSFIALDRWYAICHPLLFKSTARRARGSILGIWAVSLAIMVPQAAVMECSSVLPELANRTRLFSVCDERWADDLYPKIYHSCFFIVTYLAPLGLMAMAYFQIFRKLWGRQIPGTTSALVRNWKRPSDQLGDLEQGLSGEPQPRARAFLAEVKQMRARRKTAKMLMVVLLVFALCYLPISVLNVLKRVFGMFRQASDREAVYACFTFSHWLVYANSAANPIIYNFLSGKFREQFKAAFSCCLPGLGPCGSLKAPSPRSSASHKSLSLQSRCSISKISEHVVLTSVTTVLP
Protocol: as §1, §2, §3

| Response (%) OX2R (human OX2R; test compound 0.1 μM) [%] | Response (%) OX2R (human OX2R; test compound 1.0 μM) [%] | Response (%) OX2R (human OX2R; test compound 10 μM) [%] | Response (%) OX2R (human OX2R; 0.1 μM test compound) [%] | Response (%) OX2R (human OX2R; 1.0 μM test compound) [%] | Response (%) OX2R (human OX2R; 10 μM test compound) [%] | Response (%) OX1R (human OX1R; 0.1 μM test compound) [%] | Response (%) OX1R (human OX1R; 1.0 μM test compound) [%] | Response (%) OX1R (human OX1R; 10 μM test compound) [%] | SMILES | further results |
| --- | --- | --- | --- | --- | --- | --- | --- | --- | --- | --- |
| 35 | 95 | 95 | – | – | – | – | – | – | COc1ccc(-c2cccc(C(=O)N(C)C)c2)cc1S(=O)(=O)Nc1cccc(NCC(=O)NCc2cccc(C)c2)c1 [Example 92, 4′-methoxy-N,N-dimethyl-3′-(N-(3-((2-((3-methylbenzyl)amino)-2-oxoethyl)amino)phenyl)sulfamoyl)-[1,1′-biphenyl]-3-carboxamide] | Emax at 0.1 µM (human OX1R; test compound 0.1 μM): < 5%; Emax at 1 µM (human OX1R; test compound 1.0 μM): 6%; Emax at 10 µM (human OX1R; test compound 10 μM): 30% |
| – | – | – | 68 | 82 | 71 | <5 | <5 | <5 | COc1ccc(-c2cccc(C(=O)N(C)C)c2)cc1S(=O)(=O)Nc1cccc(NC(=O)Nc2cccc(C)c2)c1 [Example 38] | – |
| – | – | – | 23 | 89 | 86 | <5 | <5 | 14 | COc1ccc(-c2cccc(C(=O)N(C)C)c2)cc1S(=O)(=O)Nc1cccc(NC(=N)Nc2cccc(C)c2)c1 [Example 78] | – |
| – | – | – | 93 | 90 | 89 | <5 | 20 | 55 | COc1ccc(-c2cccc(C(=O)N(C)C)c2)cc1S(=O)(=O)Nc1cccc(NC(=S)Nc2cccc(C)c2)c1 [Example 76] | – |
| 6 | 6 | 21 | – | – | – | – | – | – | COc1ccc(-c2cccc(C(=O)N(C)C)c2)cc1S(=O)(=O)Nc1cccc(Nc2c(Nc3ccc(C)cc3)c(=O)c2=O)c1 [Example 84] | Response (%) OX1R (human OX1R; test compound 0.1 μM): <5%; Response (%) OX1R (human OX1R; test compound 1.0 μM): <5%; Response (%) OX1R (human OX1R; test compound 10 μM): 10% |
| – | – | – | 7 | 59 | 79 | <5 | <5 | <5 | COc1ccc(-c2cccc(C(=O)N(C)C)c2)cc1S(=O)(=O)Nc1cccc(NC(=O)Nc2ccc(NC(=O)OC(C)(C)C)cc2)c1 [Example 72] | – |
| 7 | 7 | 10 | – | – | – | – | – | – | COc1ccc(-c2cccc(C(=O)N(C)C)c2)cc1S(=O)(=O)Nc1ccc(NC(=O)Nc2cccc(N(C)C)c2)cc1 [Example 122] | Response (%) OX1R (human OX1R; test compound 0.1 μM): <5%; Response (%) OX1R (human OX1R; test compound 1.0 μM): <5%; Response (%) OX1R (human OX1R; test compound 10 μM): <5% |
| <5 | 7 | 49 | – | – | – | – | – | – | COc1ccc(C(=O)NCc2ccccc2)cc1S(=O)(=O)Nc1cccc(NC(=O)Nc2cccc(N(C)C)c2)c1 [Example 100, N-benzyl-3-(N-(3-(3-(3-(dimethylamino)phenyl)ureido)phenyl)sulfamoyl)-4-methoxybenzamide] | Emax at 0.1 µM (human OX1R; test compound 0.1 μM): < 5%; Emax at 1 µM (human OX1R; test compound 1.0 μM): < 5%; Emax at 10 µM (human OX1R; test compound 10 μM): < 5% |
| 101 | 76 | 75 | – | – | – | – | – | – | COc1ccc(-c2cccc(C(=O)N(C)C)c2)cc1S(=O)(=O)Nc1cccc(N2CCCN(c3cccc(N(C)C)c3)C2=O)c1 [Example 134] | Response (%) OX1R (human OX1R; test compound 0.1 μM): 9%; Response (%) OX1R (human OX1R; test compound 1.0 μM): 13%; Response (%) OX1R (human OX1R; test compound 10 μM): 84% |
| – | – | – | <5 | <5 | 23 | – | – | – | COc1ccc(-c2cccc(C(=O)N(C)C)c2)cc1S(=O)(=O)Nc1cccc(Nc2c(Nc3cccc(C)c3)c(=O)c2=O)c1 [Example 80, 3′-(N-(3-((3,4-dioxo-2-(m-tolylamino)cyclobut-1-en-1-yl)amino)phenyl)sulfamoyl)-4′-methoxy-N,N-dimethyl-[1,1′-biphenyl]-3-carboxamide] | Emax at 0.1 µM (human OX1R; 0.1 μM test compound): < 5%; Emax at 1 µM (human OX1R; 1.0 μM test compound): < 5%; Emax at 10 µM (human OX1R; 10 μM test compound): < 5% |
| <5 | <5 | 28 | – | – | – | – | – | – | COc1ccc(C(=O)N(C)C)cc1S(=O)(=O)Nc1cccc(NC(=O)Nc2ccccc2N(C)C)c1 [Example 114] | Response (%) OX1R (human OX1R; test compound 0.1 μM): <5%; Response (%) OX1R (human OX1R; test compound 1.0 μM): <5%; Response (%) OX1R (human OX1R; test compound 10 μM): <5% |
| – | – | – | <5 | 18 | 74 | <5 | <5 | <5 | COc1ccc(-c2cccc(C(=O)N(C)C)c2)cc1S(=O)(=O)Nc1cccc(NC(=O)/C=C/c2ccoc2)c1 [Example 14] | – |
| – | – | – | 55 | 88 | 81 | – | – | – | COc1ccc(-c2cccc(C(=O)N(C)C)c2)cc1S(=O)(=O)Nc1cccc(NC(=O)Nc2ccccc2)c1 [Example 37, 4′-methoxy-N,N-dimethyl-3′-(N-(3-(3-phenylureido)phenyl)sulfamoyl)-[1,1′-biphenyl]-3-carboxamide] | Emax at 0.1 µM (human OX1R; 0.1 μM test compound): < 5%; Emax at 1 µM (human OX1R; 1.0 μM test compound): < 5%; Emax at 10 µM (human OX1R; 10 μM test compound): < 5% |
| – | – | – | <5 | <5 | 16 | 10 | 8 | <5 | COc1ccc(-c2cccc(C(=O)N(C)C)c2)cc1S(=O)(=O)Nc1cccc(NC(=O)c2ccncc2)c1 [Example 4] | – |
| – | – | – | 61 | 94 | 95 | – | – | – | COc1ccc(-c2cccc(C(=O)N(C)C)c2)cc1S(=O)(=O)Nc1cccc(NC(=S)Nc2ccccc2)c1 [Example 75, 4′-methoxy-N,N-dimethyl-3′-(N-(3-(3-phenylthioureido)phenyl)sulfamoyl)-[1,1′-biphenyl]-3-carboxamide] | Emax at 0.1 µM (human OX1R; 0.1 μM test compound): < 5%; Emax at 1 µM (human OX1R; 1.0 μM test compound): < 5%; Emax at 10 µM (human OX1R; 10 μM test compound): 30% |
| – | – | – | 102 | 105 | 104 | <5 | <5 | 10 | COc1ccc(-c2cccc(C(=O)N(C)C)c2)cc1S(=O)(=O)Nc1cccc(NC(=O)Nc2ccccc2Br)c1 [Example 43] | – |
| – | – | – | <5 | 52 | 95 | <5 | <5 | <5 | COc1ccc(-c2cccc(C(=O)N(C)C)c2)cc1S(=O)(=O)Nc1cccc(Nc2ccc(C(=O)N(C)C)cc2)c1 [Example 34] | – |
| – | – | – | <5 | 18 | 52 | <5 | <5 | <5 | COc1ccc(-c2cccc(C(=O)N(C)C)c2)cc1S(=O)(=O)Nc1cccc(NC(=O)Nc2ccc(NC(=N)NC(=O)OC(C)(C)C)cc2)c1 [Example 59] | – |

From patent publication US10351522B2, “Sulfonamide derivative and pharmaceutically acceptable acid addition salt thereof” (UNIVERSITY OF TSUKUBA, priority 2015, dated 2019)
